Assay results from ChEMBL document CHEMBL1126745, “2,2-Dialkylnaphthalen-1-ones as new potassium channel activators” (J Med Chem, 1993).

Experiments:
Rattus norvegicus [1] = species: Rattus norvegicus; assay: Percentage of inhibition of noradrenaline-induced contractions in rat portal vein at 10 uM (in vitro); format: functional
Rattus norvegicus [2] = assay: Change in systolic blood pressure at intervals of 1 hr after oral administration of 1 mg/kg of compound in spontaneously hypertensive rats (in vivo); Not significant; format: functional, Artery
Cavia porcellus = species: Cavia porcellus; assay: In vitro inhibition of spontaneous tone of guinea pig tracheal spirals; format: functional; settings: Trachea
Rattus norvegicus [3] = species: Rattus norvegicus; assay: In vitro inhibition of noradrenaline-induced contractions in rat portal vein; format: functional
Rattus norvegicus [4] = assay: Change in systolic blood pressure at intervals of 1 hr after oral administration of 1 mg/kg of compound in spontaneously hypertensive rats (in vivo); format: functional, Artery
Rattus norvegicus [5] = assay: Effective dose (after peroral administration) required to decrease systolic blood pressure by 30 mmHg in spontaneously hypertensive rats (SHR); format: functional; settings: Artery, po

| SMILES | inhibition at 10 µM (Rattus norvegicus [1]) [%] | Delta blood pressure (Rattus norvegicus [2]) [mmHg] | IC50 (Cavia porcellus) [µM] | IC50 (Rattus norvegicus [3]) [µM] | Max fall in blood pressure (Rattus norvegicus [4]) [mmHg] | Delta blood pressure (Rattus norvegicus [4]) [mmHg] | ED30 (Rattus norvegicus [5]) [mg/kg] |
| --- | --- | --- | --- | --- | --- | --- | --- |
| COc1ccc2c(c1)C(N1CCCC1=O)=CC(C)(C)C2=O | 20 | <20 | – | – | – | – | – |
| CC1(C)C=C(N2Cc3ccccc3C2=O)c2cc(C#N)ccc2C1=O | – | – | 1.3 | 0.6 | 34 | – | – |
| CC1(C)C(=O)c2ccccc2[C@@H](n2ccccc2=O)[C@@H]1O | 0 | <20 | – | – | – | – | – |
| CC1(C)C(=O)c2ccc(C#N)cc2[C@@H](NC(=O)c2ccc(Cl)c(Cl)c2)[C@@H]1O | 67 | <20 | > 10 | – | – | – | – |
| CNc1ccc2c(c1)C(n1ccccc1=O)=CC(C)(C)C2=O | – | <20 | 9.1 | 52 | – | – | – |
| C/C(=N/[C@@H]1c2cc(C#N)ccc2C(=O)C(C)(C)[C@H]1O)NC#N | 19 | <20 | 3.5 | – | – | – | – |
| CC(=O)OC1c2ccc(Br)cc2C(n2ccccc2=O)=CC1(C)C (configuration not stated) | 38 | <20 | > 10 | – | – | – | – |
| CC(=O)N[C@@H]1c2cc(C#N)ccc2C(=O)C(C)(C)[C@H]1O | – | – | 8.7 | 45 | 28.6 | – | – |
| CC1(C)C(=O)c2ccc(Br)cc2C(N2CCCC2=O)[C@@H]1O (some centres not stated) | 40 | – | > 10 | – | 39 | – | – |
| CC1(C)C=C(n2ccccc2=O)c2ccc(Br)cc2C1=O | – | – | 4.7 | 2.7 | 37 | – | – |
| CC1(C)C=C(N2CCCCC2=O)c2cc(Br)ccc2C1=O | – | – | 3.5 | 8 | 43.6 | – | – |
| CC1(C)C(=O)c2ccc(Cl)cc2[C@@H](n2ccccc2=O)[C@@H]1O | 0 | – | – | – | – | – | – |
| CC1(C)C(=O)c2ccc(C#N)cc2[C@@H](NC(=O)c2ccc(Cl)cc2Cl)[C@@H]1O | 35 | <20 | > 10 | – | – | – | – |
| CC1(C)C(=O)c2ccc(C#N)cc2[C@@H](OC2=CC(=O)CC2)[C@@H]1O | 9 | – | > 10 | – | – | 50 | – |
| CC1(C)C(=O)c2cc(Cl)c(Cl)cc2[C@@H](n2ccccc2=O)[C@@H]1O | – | – | 5 | 1.5 | 52 | – | – |
| CCC1(CC)CCc2cc(OC)ccc2C1=O | – | – | > 10 | 8 | 83 | – | – |
| CC1(C)C(=O)c2ccc(C#N)cc2[C@@H](NC(=O)c2ccncc2)[C@@H]1O | 39 | <20 | > 10 | – | – | – | – |
| CC1(C)C(=O)c2ccc(Br)cc2[C@@H](N2CCN=C2NC#N)[C@@H]1O | 8 | – | > 10 | – | 27.6 | – | – |
| CC1(C)C(=O)c2ccc(Br)cc2[C@@H](N2CCS/C2=N\C#N)[C@@H]1O | 26 | – | – | – | 30.5 | – | – |
| CC(=O)N(C)c1ccc2c(c1)C(n1ccccc1=O)=CC(C)(C)C2=O | – | – | 3.1 | 4.3 | 74 | – | – |
| CC1(C)C=C(n2ccccc2=O)c2cc(Br)ccc2C1(C)O (configuration not stated) | 23 | <20 | 4.2 | – | – | – | – |
| CC1(C)C=C(N2CCCC2=O)c2cc(Cl)ccc2C1=O | 0 | – | > 10 | – | 32.5 | – | – |
| CC1(C)C=C(n2ccccc2=O)c2cc(C#N)ccc2/C1=N\O | 27 | – | 12.5 | – | 28 | – | – |
| CC(=O)N(C)c1ccc2c(c1)C(N1CCCC1=O)=CC(C)(C)C2=O | – | – | 2.5 | 17 | 23 | – | – |
| CC1(C)C=C(n2ccccc2=O)c2cc(Cl)c(Cl)cc2C1=O | – | – | 0.1 | 0.7 | 58 | – | – |
| CCC1(CC)C=C(n2ccccc2=O)c2cc(Br)ccc2C1=O | – | – | 8 | 3.3 | 44 | – | – |

| SMILES | inhibition at 10 µM (Rattus norvegicus [1]) [%] | Delta blood pressure (Rattus norvegicus [2]) [mmHg] | IC50 (Cavia porcellus) [µM] | IC50 (Rattus norvegicus [3]) [µM] | Max fall in blood pressure (Rattus norvegicus [4]) [mmHg] | Delta blood pressure (Rattus norvegicus [4]) [mmHg] | ED30 (Rattus norvegicus [5]) [mg/kg] |
| --- | --- | --- | --- | --- | --- | --- | --- |
| CC1(C)C(=O)c2ccc(C#N)cc2C(N2CCCC2=O)[C@@H]1O (some centres not stated) | 12 | – | > 10 | – | 23 | – | – |
| COC1c2ccc(Br)cc2C(n2ccccc2=O)=CC1(C)C (configuration not stated) | 22 | – | 17 | – | 28 | – | – |
| CC1(C)C=C(n2ccccc2=O)c2cc(Cl)ccc2C1=O | – | – | 1.1 | 1.4 | 53.7 | – | – |
| CC(=O)N(C)c1ccc2c(c1)[C@@H](n1ccccc1=O)[C@H](O)C(C)(C)C2=O | – | – | > 10 | 33 | 94 | – | – |
| CC1(C)C(=O)c2ccc(C#N)cc2[C@@H](NC(=O)c2ccoc2)[C@@H]1O | 24 | – | – | – | 58 | – | – |
| CC1(C)C=C(N2CCCC2=O)c2ccc(C#N)cc2C1=O | 0 | – | – | – | 24.5 | – | – |
| CCC1(CC)C=C(n2ccccc2=O)c2cc(C#N)ccc2C1=O | – | – | 2.6 | 7.8 | 35.6 | – | – |
| CC1(C)C(=O)c2ccc(Br)cc2[C@@H](Oc2ccccn2)[C@@H]1O | 32 | – | – | – | 33 | – | – |
| CC1(C)C(=O)c2ccc(F)cc2[C@@H](n2ccccc2=O)[C@@H]1O | 0 | – | – | – | 21.5 | – | – |
| COC(=N)c1ccc2c(c1)C(n1ccccc1=O)=CC(C)(C)C2=O | – | – | 3.1 | 11 | – | 27.5 | – |
| CC1(C)C=C(n2ccccc2=O)c2cc(C#C[Si](C)(C)C)ccc2C1=O | – | – | 2.4 | 0.5 | – | – | 0.005 |
| CC1(C)C=C(n2ccccc2=O)c2cc(C(=O)O)ccc2C1=O | 0 | <20 | > 10 | – | – | – | – |
| CC1(C)C(=O)c2ccc(C#N)cc2[C@@H](NC(=O)c2cccnc2)[C@@H]1O | – | – | 4.1 | 2.8 | 50 | – | – |
| COc1ccc2c(c1)[C@@H](n1ccccc1=O)[C@H](O)C(C)(C)C2=O | 0 | – | > 10 | – | 42.9 | – | – |
| CC1(C)C=C(n2ccccc2=O)c2cc(C(F)(F)F)ccc2C1=O | – | – | 0.5 | 0.3 | – | – | 0.005 |
| CC1(C)C=C(N2CCCC2=O)c2ccc(Br)cc2C1=O | 11 | – | > 10 | – | 54.5 | – | – |
| CC1(C)C(=O)c2ccc(C#N)cc2[C@@H](NC(=O)c2ccc([N+](=O)[O-])cc2)[C@@H]1O | – | <20 | 7.9 | 4.9 | – | – | – |
| CC1(C)C=C(N2CCCC2=O)c2ccccc2C1=O | 0 | <20 | – | – | – | – | – |
| CC1(C)C=C(n2ccccc2=O)c2cc(C(N)=O)ccc2C1=O | 21 | <20 | > 10 | – | – | – | – |
| Cn1nc(OC2=CC(C)(C)C(=O)c3ccc(C#N)cc32)ccc1=O | 0 | – | – | – | – | 24 | – |
| CC1(C)C=C(n2ccccc2=O)c2ccc(C#N)cc2C1=O | 0 | – | > 10 | – | 41 | – | – |
| CC1(C)C=C(N2CCCC2=O)c2cc(C#N)ccc2C1=O | – | – | 0.9 | 0.8 | – | – | 0.03 |
| CC1(C)C(=O)c2ccc(C#N)cc2[C@@H](N2Cc3ccccc3C2=O)[C@@H]1O | – | – | 1.1 | 0.5 | 76 | – | – |
| CC1(C)C(=O)c2ccc(C#N)cc2[C@@H](n2ccccc2=O)[C@@H]1O | – | – | > 10 | 14 | 84 | – | – |
| CC(=O)O[C@H]1[C@H](n2ccccc2=O)c2cc(Br)ccc2C(=O)C1(C)C | 38 | – | – | – | 29 | – | – |
| CC1(C)Oc2ccc(C#N)cc2C(N2CCCC2=O)C1O (racemic) [CROMAKALIM] | – | – | – | – | – | – | 0.05 |
